Legend:
[1] = tested on: PC-3 PIP (PSMA+) and PC-3 flu (PSMA−) xenograft-bearing SCID mice; assay: Ex vivo biodistribution in tumor-bearing mice; settings: 5 h p.i.
[2] = target: PSMA, lysates of LNCaP cell extracts (Homo sapiens (Human), UniProt Q04609); assay: fluorescence-based PSMA inhibition assay (Amplex Red glutamic acid kit); format: biochemical; settings: 4 μM NAAG
[3] = target: NAALADase (PSMA) prepared from LNCaP cell lysates (Homo sapiens (Human), UniProt Q04609); assay: NAALADase (radiometric) assay, NAAG hydrolysis; format: biochemical; settings: [3H]NAAG 30 nM
[4] = Stability of radiolabeled product after synthesis; format: physicochemical; settings: after radiosynthesis and HPLC
Experimental: Synthesis of 2-[3-(1-carboxy-5-{4-[N′-(4-[^18F]fluoro-benzylidene)-hydrazino]-benzoylamino}-pentyl)-ureido]-pentanedioic acid (^18F]12). 4-[^18F]fluorobenzaldehyde was synthesized by using a known procedure (Nuclear Medicine and Biology 33 (2006) 677-683). To the crude DMSO solution of 4-[^18F]fluorobenzaldehyde was added 1-2 mg of compound 14, 0.2 mL of 50 mM KH2PO4. The vial was closed and heated at 90° C. for […]. The reaction mixture was then purified by HPLC (Ecomosphere C18 10μ, 250×10 mm, H2O/CH3CN/TFA [70/30/0.1], 4 mL/min). The radiochemical yield (decay corrected and based on starting [^18F] fluoride, n=2) was 30-55%. […] The specific activity of final compound was not determined.

Sequence of PSMA, lysates of LNCaP cell extracts (Q04609 whole entry): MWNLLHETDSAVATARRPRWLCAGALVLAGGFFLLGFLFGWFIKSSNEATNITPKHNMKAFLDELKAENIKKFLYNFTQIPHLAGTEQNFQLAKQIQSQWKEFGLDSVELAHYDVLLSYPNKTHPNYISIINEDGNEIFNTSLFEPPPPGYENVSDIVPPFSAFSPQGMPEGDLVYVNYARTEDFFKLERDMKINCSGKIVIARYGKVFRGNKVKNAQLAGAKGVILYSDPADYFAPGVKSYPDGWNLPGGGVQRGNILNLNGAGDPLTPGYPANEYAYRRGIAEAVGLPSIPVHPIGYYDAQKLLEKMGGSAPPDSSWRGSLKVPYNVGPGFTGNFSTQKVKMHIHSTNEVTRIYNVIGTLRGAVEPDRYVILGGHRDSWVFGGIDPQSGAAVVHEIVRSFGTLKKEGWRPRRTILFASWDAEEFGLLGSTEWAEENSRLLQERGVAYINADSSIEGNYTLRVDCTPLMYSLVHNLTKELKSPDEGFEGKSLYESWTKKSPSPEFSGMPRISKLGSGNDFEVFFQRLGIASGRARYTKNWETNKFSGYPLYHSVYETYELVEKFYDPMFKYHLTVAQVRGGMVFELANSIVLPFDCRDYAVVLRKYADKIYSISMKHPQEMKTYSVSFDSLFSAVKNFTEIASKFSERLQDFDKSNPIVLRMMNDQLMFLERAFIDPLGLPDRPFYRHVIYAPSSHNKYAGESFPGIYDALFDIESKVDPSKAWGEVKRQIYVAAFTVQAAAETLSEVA

stability of compound after preparation [4] | SMILES | PIP:flu ratio [1] | Ki [2] [nM] | Ki [3] [nM]
– | O=C(O)CCC(NC(=O)NC(CCCCNC(=O)c1ccc(F)cc1)C(=O)O)C(=O)O (stereo not shown) [Compound 6, 2-{3-[1-Carboxy-5-(4-fluoro-benzoylamino)-pentyl]-ureido}-pentanedioic acid] | 31 | 0.194 | 0.256
decomposed soon after been made | O=C(O)CCC(NC(=O)NC(CCCCNC(=O)c1ccc(NN=Cc2ccc(F)cc2)cc1)C(=O)O)C(=O)O (stereo not shown) [Compound 12, 2-[3-(1-carboxy-5-{4-[N′-(4-fluoro-benzylidene)-hydrazino]-benzoylamino}-pentyl)-ureido]-pentanedioic acid] | – | – | –

Reference: patent publication US12070513B2, “PSMA-binding agents and uses thereof” (The Johns Hopkins University, priority 2008, dated 2024)
